Measured values as given in ChEMBL document CHEMBL1122006, “Comparison of quantitative structure-activity relationships of the inhibition of leukemia cells in culture with the inhibition of dihydrofolate reductase from leukemia cells and other cell types” (1982).

System: L5178Y
Test: Concentration required for inhibition of murine leukemia L5178Y cells
Format: functional, Mus musculus

Row | Compound | Log 1/C
1 | CC1(C)N=C(N)N=C(N)N1c1cccc(I)c1 | 8.4
2 | CC1(C)N=C(N)N=C(N)N1c1cccc(Br)c1 | 8.42
3 | Cc1cccc(OCc2cccc(N3C(N)=NC(N)=NC3(C)C)c2)c1 | 8.16
4 | CCCCCCCCCOc1cccc(N2C(N)=NC(N)=NC2(C)C)c1 | 6.93
5 | CC1(C)N=C(N)N=C(N)N1c1cccc(COc2ccccc2)c1 | 8.2
6 | CC1(C)N=C(N)N=C(N)N1c1cccc(OCCCCOc2cccc(C(F)(F)F)c2)c1 | 7.14
7 | CC(C)(C)c1cccc(OCc2cccc(N3C(N)=NC(N)=NC3(C)C)c2)c1 | 7.3
8 | CC(C)(C)c1cccc(N2C(N)=NC(N)=NC2(C)C)c1 | 7.59
9 | CC1(C)N=C(N)N=C(N)N1c1cccc(OCCOc2ccccc2)c1 | 7.34
10 | CC1(C)N=C(N)N=C(N)N1c1cccc(F)c1 | 7.94
11 | CC(=O)c1cccc(N2C(N)=NC(N)=NC2(C)C)c1 | 6.96
12 | CCOC(=O)c1cccc(N2C(N)=NC(N)=NC2(C)C)c1 | 8.13
13 | CC1(C)N=C(N)N=C(N)N1c1cccc(COc2cccc(CO)c2)c1 | 8.32
14 | Cc1cccc(N2C(N)=NC(N)=NC2(C)C)c1 | 8.01
15 | COc1cccc(OCc2cccc(N3C(N)=NC(N)=NC3(C)C)c2)c1 | 8.02
16 | CC1(C)N=C(N)N=C(N)N1c1cccc(OCCCCOc2ccccc2)c1 | 6.97
17 | CC1(C)N=C(N)N=C(N)N1c1cccc([N+](=O)[O-])c1 | 7.66

Row | Compound | Log 1/C
18 | CC1(C)N=C(N)N=C(N)N1c1cccc(C(N)=O)c1 | 6.1
19 | CN(Cc1cnc2nc(N)nc(N)c2n1)c1ccc(C(=O)N[C@@H](CCC(=O)O)C(=O)O)cc1 [METHOTREXATE] | 8.89
20 | CC1(C)N=C(N)N=C(N)N1c1cccc(COc2cccc(NC(=N)S)c2)c1 | 8.08
21 | CC1(C)N=C(N)N=C(N)N1c1ccc(OCc2cccc(C(N)=O)c2)c(Cl)c1 | 7.53
22 | CC1(C)N=C(N)N=C(N)N1c1cccc(COc2cccc(C#N)c2)c1 | 8.09
23 | CC1(C)N=C(N)N=C(N)N1c1cccc(OCc2ccccc2)c1 | 7.78
24 | CC1(C)N=C(N)N=C(N)N1c1cccc(OCc2ccc(Cl)c(Cl)c2)c1 | 7.15
25 | CCc1cccc(OCc2cccc(N3C(N)=NC(N)=NC3(C)C)c2)c1 | 8.11
26 | CC1(C)N=C(N)N=C(N)N1c1cccc(OCCOc2cccc(C(F)(F)F)c2)c1 | 7.37
27 | CC(C)c1cccc(OCc2cccc(N3C(N)=NC(N)=NC3(C)C)c2)c1 | 8.13
28 | CC(=O)Nc1cccc(OCc2cccc(N3C(N)=NC(N)=NC3(C)C)c2)c1 | 8.66
29 | CC1(C)N=C(N)N=C(N)N1c1cccc(C(O)c2ccccc2)c1 (stereo not drawn) | 6.41
30 | CC1(C)N=C(N)N=C(N)N1c1cccc(CNc2cc(C(N)=O)cc(C(N)=O)c2)c1 | 7.01
31 | CC1(C)N=C(N)N=C(N)N1c1cccc(COc2cccc(NC(N)=O)c2)c1 | 8.18
32 | CC1(C)N=C(N)N=C(N)N1c1cccc(COc2cccc(Cl)c2)c1 | 8.1
33 | CCCCCCCCCCCCOc1cccc(N2C(N)=NC(N)=NC2(C)C)c1 | 6.41
